Measurements taken from patent US8188101B2 (AstraZeneca AB, priority 2008, dated 2012).

system: Aβ42 release; assay: Aβ release in cells stably expressing APPswe, Meso Scale Discovery electrochemiluminescence assay; format: cell-based, Human; conditions: Homo sapiens, SH-SY5Y, HEK or SH-SY5Y cells stably expressing APPswe, 4-6 hours incubation with test compound
Outline: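 HEK or SH-SY5Y cells stably expressing APPswe, plated 15-24 h, then exposed to compound (diluted ×200 into fresh medium) for 4-6 h at 37 °C. Secreted Aβ42 in medium quantified by Meso Scale Discovery electrochemiluminescence with specific antibodies; cytotoxicity checked by cellular ATP content.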

| SMILES | IC50 |
| --- | --- |
| CC(=O)N1CCc2nc(Nc3ccc(-c4cnco4)cc3)nc(N(C)Cc3ccccc3CO)c2C1 [Example 91, 1-(4-((2-(Hydroxymethyl)benzyl)(methyl)amino)-2-(4-(oxazol-5-yl)phenylamino)-7,8-dihydropyrido[4,3-d]pyrimidin-6(5H)-yl)ethanone] | 2.51 µM |
| CC(=O)N1CCc2nc(Nc3ccc(-c4cnco4)cc3)nc(N(C)Cc3ccccn3)c2C1 [Example 92, 1-(4-(Methyl(pyridin-2-ylmethyl)amino)-2-(4-(oxazol-5-yl)phenylamino)-7,8-dihydropyrido[4,3-d]pyrimidin-6(5H)-yl)ethanone] | 5.01 µM |
| CC(=O)N1CCc2nc(Nc3ccc(-c4cnco4)cc3)nc(N3CCCC(CO)C3)c2C1 (centres unmarked) [Example 93, 1-(4-(3-(Hydroxymethyl)piperidin-1-yl)-2-(4-(oxazol-5-yl)phenylamino)-7,8-dihydropyrido[4,3-d]pyrimidin-6(5H)-yl)ethanone] | 6.31 µM |
| CC(=O)N1CCc2nc(Nc3ccc(-c4cnco4)cc3)nc(N3CCCCC3CO)c2C1 (centres unmarked) [Example 94, 1-(4-(2-(Hydroxymethyl)piperidin-1-yl)-2-(4-(oxazol-5-yl)phenylamino)-7,8-dihydropyrido[4,3-d]pyrimidin-6(5H)-yl)ethanone] | 5.01 µM |
| COc1cccc(Cc2nc(Nc3ccc(-n4cnc(C)c4)c(OC)c3)nc3c2CN(C)CC3)c1 [Example 95, N-(3-Methoxy-4-(4-methyl-1H-imidazol-1-yl)phenyl)-4-(3-methoxybenzyl)-6-methyl-5,6,7,8-tetrahydropyrido[4,3-d]pyrimidin-2-amine] | 0.0398 µM |
| COc1cccc(Cc2nc(Nc3ccc(-n4cnc(C)c4)c(OC)c3)nc3c2CN(C(C)=O)CC3)c1 [Example 96, 1-(2-(3-Methoxy-4-(4-methyl-1H-imidazol-1-yl)phenylamino)-4-(3-methoxybenzyl)-7,8-dihydropyrido[4,3-d]pyrimidin-6(5H)-yl)ethanone] | 0.0631 µM |
| COc1cccc(Cc2nc(Nc3ccc(-n4ccnc4C)cc3)nc3c2CN(C(C)=O)CC3)c1 [Example 97, 1-(4-(3-Methoxybenzyl)-2-(4-(2-methyl-1H-imidazol-1-yl)phenylamino)-7,8-dihydropyrido[4,3-d]pyrimidin-6(5H)-yl)ethanone] | 0.631 µM |
| CC(=O)N1CCc2nc(Nc3ccc(-n4ccnc4C)cc3)nc(Cc3ccccc3F)c2C1 [Example 98, 1-(4-(2-Fluorobenzyl)-2-(4-(2-methyl-1H-imidazol-1-yl)phenylamino)-7,8-dihydropyrido[4,3-d]pyrimidin-6(5H)-yl)ethanone] | 0.794 µM |
| Cc1nccn1-c1ccc(Nc2nc3c(c(Cc4ccc(F)cc4)n2)CC(C(F)(F)F)CC3)cc1 (centres unmarked) [Example 99, 4-(4-Fluorobenzyl)-N-(4-(2-methyl-1H-imidazol-1-yl)phenyl)-6-(trifluoromethyl)-5,6,7,8-tetrahydroquinazolin-2-amine] | 0.316 µM |
| COc1cccc(Cc2nc(Nc3ccc(-n4cnc(C)c4)c(OC)c3)nc3c2COCC3)c1 [Example 100, N-(3-Methoxy-4-(4-methyl-1H-imidazol-1-yl)phenyl)-4-(3-methoxybenzyl)-7,8-dihydro-5H-pyrano[4,3-d]pyrimidin-2-amine] | 0.1 µM |
| COc1cc(Nc2nc3c(c(C(OC)c4ccccc4)n2)COCC3)ccc1-n1cnc(C)c1 (centres unmarked) [Example 101, 4-(Methoxy(phenyl)methyl)-N-(3-methoxy-4-(4-methyl-1H-imidazol-1-yl)phenyl)-7,8-dihydro-5H-pyrano[4,3-d]pyrimidin-2-amine] | 0.0501 µM |
| COc1cc(Nc2nc3c(c(CCC4CCCO4)n2)COCC3)ccc1-n1cnc(C)c1 (centres unmarked) [Example 102, N-(3-Methoxy-4-(4-methyl-1H-imidazol-1-yl)phenyl)-4-(2-(tetrahydrofuran-2-yl)ethyl)-7,8-dihydro-5H-pyrano[4,3-d]pyrimidin-2-amine] | 0.126 µM |
| COc1cc(Nc2nc3c(c(C(C)(C)O)n2)COCC3)ccc1-n1cnc(C)c1 [Example 103, 2-(2-(3-Methoxy-4-(4-methyl-1H-imidazol-1-yl)phenylamino)-7,8-dihydro-5H-pyrano[4,3-d]pyrimidin-4-yl)propan-2-ol] | 0.1 µM |
| COc1cc(Nc2nc3c(c(C(C)n4nc(C)cc4C)n2)COCC3)ccc1-n1cnc(C)c1 (centres unmarked) [Example 104, 4-(1-(3,5-Dimethyl-1H-pyrazol-1-yl)ethyl)-N-(3-methoxy-4-(4-methyl-1H-imidazol-1-yl)phenyl)-7,8-dihydro-5H-pyrano[4,3-d]pyrimidin-2-amine] | 0.2 µM |

Other lines, results leading:

| IC50 | SMILES |
| --- | --- |
| 0.0158 µM | COc1cc(Nc2nc3c(c(Cc4ccccc4)n2)CN(CC#N)CC3)ccc1-n1cnc(C)c1 [Example 105, 2-(4-Benzyl-2-(3-methoxy-4-(4-methyl-1H-imidazol-1-yl)phenylamino)-7,8-dihydropyrido[4,3-d]pyrimidin-6(5H)-yl)acetonitrile] |
| 0.0631 µM | COc1cc(Nc2nc3c(c(Cc4ccccc4)n2)CNCC3)ccc1-n1cnc(C)c1 [Example 106, 4-Benzyl-N-(3-methoxy-4-(4-methyl-1H-imidazol-1-yl)phenyl)-5,6,7,8-tetrahydropyrido[4,3-d]pyrimidin-2-amine] |
| 0.0251 µM | COc1cc(Nc2nc3c(c(Cc4ccccc4)n2)CN(C(C)=O)CC3)ccc1-n1cnc(C)c1 [Example 107, 1-(4-Benzyl-2-(3-methoxy-4-(4-methyl-1H-imidazol-1-yl)phenylamino)-7,8-dihydropyrido[4,3-d]pyrimidin-6(5H)-yl)ethanone] |
| 0.501 µM | COc1cc(Nc2nc3c(c(C(C)n4nc(C)cc4C)n2)CN(C(C)=O)CC3)ccc1-n1cnc(C)c1 (centres unmarked) [Example 108, 1-(4-(1-(3,5-Dimethyl-1H-pyrazol-1-yl)ethyl)-2-(3-methoxy-4-(4-methyl-1H-imidazol-1-yl)phenylamino)-7,8-dihydropyrido[4,3-d]pyrimidin-6(5H)-yl)ethanone] |
| 0.02 µM | COc1cc(Nc2nc3c(c(COC4CCCC4)n2)COCC3)ccc1-n1cnc(C)c1 [Example 109, 4-(Cyclopentyloxymethyl)-N-(3-methoxy-4-(4-methyl-1H-imidazol-1-yl)phenyl)-7,8-dihydro-5H-pyrano[4,3-d]pyrimidin-2-amine] |
| 2.51 µM | COc1cc(Nc2nc3c(c(CCN4CCCC4=O)n2)COCC3)ccc1-n1cnc(C)c1 [Example 110, 1-(2-(2-(3-Methoxy-4-(4-methyl-1H-imidazol-1-yl)phenylamino)-7,8-dihydro-5H-pyrano[4,3-d]pyrimidin-4-yl)ethyl)pyrrolidin-2-one] |
| 0.251 µM | COc1cc(Nc2nc(CCC3CCCO3)c3c(n2)CCN(C(C)=O)C3)ccc1-n1cnc(C)c1 (centres unmarked) [Example 111, 1-(2-(3-Methoxy-4-(4-methyl-1H-imidazol-1-yl)phenylamino)-4-(2-(tetrahydrofuran-2-yl)ethyl)-7,8-dihydropyrido[4,3-d]pyrimidin-6(5H)-yl)ethanone] |
| 0.126 µM | COc1cc(Nc2nc(CCC3CCCO3)c3c(n2)CCN(C)C3)ccc1-n1cnc(C)c1 (centres unmarked) [Example 112, N-(3-Methoxy-4-(4-methyl-1H-imidazol-1-yl)phenyl)-6-methyl-4-(2-(tetrahydrofuran-2-yl)ethyl)-5,6,7,8-tetrahydropyrido[4,3-d]pyrimidin-2-amine] |
| 1.58 µM | Cc1nccn1-c1ccc(Nc2nc3c(c(Cc4ccccc4)n2)C[S+]([O-])CC3)cc1 (centres unmarked) [Example 114, 4-Benzyl-N-[4-(2-methyl-1H-imidazol-1-yl)phenyl]-7,8-dihydro-5H-thiopyrano[4,3-d]pyrimidin-2-amine 6-oxide] |
